Measured values reported in patent publication US4775692A, “2,5,6,7-tetranor-4,8-inter-m-phenylene PGI2 derivatives” (Toray Industries, Inc., priority 1986, dated 1988).
≈ marks a conversion by molar mass, not a printed value. Read-outs that look alike come from different tables or passages of the source.

How the values were obtained:
gastric acid secretion [1] = test: Inhibiting effect of gastric acid secretion, pylorus-ligated rat (Shay); format: in vivo; conditions: pylorus ligation, injected into duodenum, 5 hours
Experimental: (§1) Inhibiting effect of gastric acid secretion
Under anesthesia by ether, the abdomen of the rat was incised in its median and a pylorus was ligated with silk thread according to Shay (Gastroenterology 5, 43 (1945)). Simultaneously, the compound was injected into a duodenum of the rat and then the incision was closed.
Five hours later, the median-incision of the abdomen was again performed and the esophargus was ligated and then the whole stomach was removed.
The stomach was cut along a greater curvature and the contents thereof was transferred into a graduated centrifuge tube. After centrifugation at 3,000 rpm for 10 min., a volume of a gastric juice was measured and a part of its supernatant was titrated to pH 7 with 0.1N NaOH using a pH-stat (Radio meter).
The mean dose of the compounds which may reduce the volume of gastric juice (ml) and acidity (mEq/ml) of a group of five animals to 50% of that of the controls were designated respectively as ED50.

[2] = test system: blood pressure of the carotid; test: Hypotensive effect (carotid blood pressure, anesthetized rat); format: in vivo; conditions: chloralose-anesthetized Wistar male rat, injected via catheter connected to femoral artery; read-out: Hypotensive effect ED25 (dose reducing blood pressure by 25 mmHg)
Experimental: A catheter was inserted to a carotid of the Wistar male rat under chloralose anesthesia. Another end of the catheter was connected to a polygraph with a pressure-transducer to detect a blood pressure of the carotid. The compound was injected via catheter connected to a femoral artery. The dose of the compound which may reduce the blood pressure in an amount of 25 mmHg was designated as ED25.

platelet aggregation = test: Inhibiting effect of platelet aggregation (ADP-induced, human platelet-rich plasma); format: cell-based; conditions: human PRP, compound added one minute before ADP
Experimental: Inhibiting effect of platelet aggregation
The blood taken from a human median cubital vein was centrifuged at 800 rpm for 10 min. and a supernatant thereof was used as a platelet-rich plasma (PRP). An aliquot of PRP thus obtained was put into a small tube, to which […] (ADP) was added to induce platelet aggregation. The extent of aggregation was determined by detecting a change in turbidity of the aliquot by an apparatus for measuring platelet aggregation (Rika-Denki, Tokyo). The compound was added one minute before the addition of ADP. The concentration of the compound which may reduce the platelet aggregation, 50% of the control was designated as IC50.

gastric acid secretion [3] = test: Inhibiting effect of gastric acid secretion, perfused stomach, pentagastrin-stimulated (Ghosh & Schild); format: in vivo, male SD rat; conditions: urethane-anesthetized SD rat, pentagastrin 0.05 μg/kg/min, injected through femoral vein; ratio of area index to that of PGE2
Experimental: as §1
A male SD rat was incised in the abdomen under anesthesia by urethane and the lumen of a stomach was perfused with a physiolosical saline solution through a double-cannula inserted into a lumen of the stomach. A pH of a draining gastric acid was monitored using a pH-meter (M. Ghosh, H. Schild, Br. J. Pharmacol. 13, 54 (1958)). The secretion of gastric acid was stimulated by a continuous infusion of the pentagastrin at a rate of 0.05 μg/kg/min. When the pH of gastric acid became stable value of about 4, the compound was injected through a femoral vein. As an index of the inhibiting effect of gastric acid secretion by the compound was calculated from the area surrounded by the curve drawn by the time course of the pH of gastric acid, from the point increase by the injection of the compound and to the point it came back to baseline. The index thus obtained was compared to that of PGE2 and a ratio therebetween was shown in Table 3, as a relative effect of the compound.

corpus of stomach = test: Gastric cytoprotection effect (lesion length / ulcer index after oral 0.2N NaOH); format: in vivo; conditions: 1 h, 30 min before oral 0.2N NaOH, lesion measured one hour later, read-out: Gastric cytoprotection effect ED50 (dose reducing the sore to 50% of control)
Excerpt: Gastric cytoprotection effect
Gastric cytoprotection effect was studied according to the method by A. Robert (Gastroenterology, 77(3), 443, (1979)). Thirty min. after oral administration of the compound according to the invention, 0.2N NaOH was orally applied to the animals.
One hour later, the animals were killed under anesthesia by chloroform. The stomach was removed and fixed in a solution of 5% formalin. After fixation, the stomach was cut along the greater curvature. A total length of the lesion appearing on the corpus of stomach was then measured and served as an ulcer index.
The dose of the compound which may reduce the sore to 50% of that of the control was designated as ED50.
The gastric cytoprotection effects of the compounds according to the invention, which is thus represented by ED50, are summarized in Table 1.

[4] = acidity (mEq/ml) to 50% of controls, read-out: Inhibiting effect of gastric acid secretion ED50, Acidity
[5] = volume (ml) to 50% of controls, read-out: Inhibiting effect of gastric acid secretion ED50, Volume of the gastric juice

Row | Compound | ED50 (gastric acid secretion [1]; [4]) [µg/kg] | ED50 (gastric acid secretion [1]; [5]) [µg/kg] | ED (25 mmHg) [2] [µg/kg] | IC50 (platelet aggregation) [ng/mL] | Inhibiting effect of gastric acid secretion, Relative effect (PGE2 = 1) (gastric acid secretion [3]) | ED50 (corpus of stomach) [µg/kg]
1 | CCC[C@H](C)C[C@H](O)/C=C/[C@@H]1[C@H]2c3cccc(OCC(=O)O)c3O[C@H]2C[C@H]1O [Compound 213, 17-(S)-Methyl-2,5,6,7-tetranor-4-oxa-4,8-inter-m-phenylene PGI2] | 230 | 87 | 0.023 | 0.075 (≈ 0.192 nM) | 41 | –
2 | CC(C)[C@H](O)/C=C/[C@@H]1[C@H]2c3cccc(OCC(=O)O)c3O[C@H]2C[C@H]1O (relative stereo) [Compound 164, 16-Methyl-2,5,6,7,18,19,20-heptanor-4-oxa-4,8-inter-m-phenylene PGI2] | 890 | 1340 | – | 1.35 (≈ 3.87 nM) | 12 | 9.6
3 | CCCCCC[C@H](O)/C=C/[C@@H]1[C@H]2c3cccc(OCC(=O)O)c3O[C@H]2C[C@H]1O (relative stereo) [Compound 160, 20a-Homo-2,5,6,7-tetranor-4-oxa-4,8-inter-m-phenylene PGI2] | 450 | 97 | 0.23 | 0.41 (≈ 1.05 nM) | 13 | –
4 | O=C(O)COc1cccc2c1O[C@H]1C[C@@H](O)[C@H](/C=C/[C@@H](O)COc3ccccc3)[C@@H]21 (relative stereo) [Compound 313, 16-Phenoxy-2,5,6,7,17,18,19,20-octanor-4-oxa-4,8-inter-m-phenylene PGI2] | 310 | 420 | 2.1 | – | 53 | 21.1
5 | CCCCC[C@H](O)/C=C/[C@H]1[C@H](O)CC(=O)[C@@H]1C/C=C\CCCC(=O)O [PGE2, reference compound] | – | – | – | – | 1 | –
6 | CC(C)C(C)(C)[C@H](O)/C=C/[C@@H]1[C@H]2c3cccc(OCC(=O)O)c3O[C@H]2C[C@H]1O (relative stereo) [Compound 196, 16,16,17-Trimethyl-2,5,6,7,19,20-hexanor-4-oxa-4,8 inter-m-phenylene PGI2] | – | – | – | – | – | 150
7 | CCCC(C)(C)[C@H](O)/C=C/[C@@H]1[C@H]2c3cccc(OCC(=O)O)c3O[C@H]2C[C@H]1O (relative stereo) [Compound 176, 16,16-Dimethyl-2,5,6,7,20-pentanor-4-oxa-4,8-inter-m-phenylene PGI2] | – | – | 0.69 | – | 48 | 4.1
8 | CCCCCC(C)(O)/C=C/[C@@H]1[C@H]2c3cccc(OCC(=O)O)c3O[C@H]2C[C@H]1O (relative stereo) [Compound 210, 15-Methyl-2,5,6,7-tetranor-4-oxa-4,8-inter-m-phenylene PGI2] | – | – | 0.89 | 30 (≈ 76.8 nM) | 13 | 109
9 | CCC(C)(C)[C@H](O)/C=C/[C@@H]1[C@H]2c3cccc(OCC(=O)O)c3O[C@H]2C[C@H]1O (relative stereo) [Compound 172, 16,16-Dimethyl-2,5,6,7,19,20-hexanor-4-oxa-4,8-inter-m-phenylene PGI2] | – | – | 0.72 | 2.1 (≈ 5.58 nM) | 19 | 4.6
10 | Cc1ccccc1[C@H](O)/C=C/[C@@H]1[C@H]2c3cccc(OCC(=O)O)c3O[C@H]2C[C@H]1O (relative stereo) [Compound 266, 15-(o-methylphenyl)-2,5,6,7,16,17,18,19,20-nonanor-4-oxa-4,8-inter-m-phenylene PGI2] | – | – | 0.32 | 2.3 (≈ 5.8 nM) | 7.2 | 31.2
11 | CC(C)(c1ccccc1)[C@H](O)/C=C/[C@@H]1[C@H]2c3cccc(OCC(=O)O)c3O[C@H]2C[C@H]1O (relative stereo) [Compound 293, 16-methyl-16-phenyl-2,5,6,7,18,19,20-heptanor-4-oxa-4,8-inter-m-phenylene PGI2] | – | – | 46 | – | 4.8 | –
12 | COCC(C)(C)[C@H](O)/C=C/[C@@H]1[C@H]2c3cccc(OCC(=O)O)c3O[C@H]2C[C@H]1O (relative stereo) [Compound 301, 16,16-Dimethyl-2,5,6,7,20-pentanor-4,18-dioxa-4,8-inter-m-phenylene PGI2] | – | – | 0.36 | – | 16 | 38.5
13 | CC(C)(Cc1ccccc1)[C@H](O)/C=C/[C@@H]1[C@H]2c3cccc(OCC(=O)O)c3O[C@H]2C[C@H]1O (relative stereo) [Compound 297, 16,16-dimethyl-17-phenyl-2,5,6,7,18,19,20-heptanor-4-oxa-4,8-inter-m-phenylene PGI2] | – | – | 0.34 | 13 (≈ 29.6 nM) | 75 | –
14 | CCCCC(C)(C)[C@H](O)/C=C/[C@@H]1[C@H]2c3cccc(OCC(=O)O)c3O[C@H]2C[C@H]1O (relative stereo) [Compound 180, 16,16-Dimethyl-2,5,6,7-tetranor-4-oxa-4,8-inter-m-phenylene PGI2] | 1780 | 510 | 0.69 | – | 72 | 2.9
15 | CCCC[C@H](C)C[C@H](O)/C=C/[C@@H]1[C@H]2c3cccc(OCC(=O)O)c3O[C@H]2C[C@H]1O [Compound 218, (17S)-17-Methyl-20a-homo-2,5,6,7-tetranor-4-oxa-4,8-inter-m-phenylene PGI2] | – | – | 0.045 | 0.18 (≈ 0.445 nM) | – | 0.27
16 | CC(C)(CC1CCCCC1)[C@H](O)/C=C/[C@@H]1[C@H]2c3cccc(OCC(=O)O)c3O[C@H]2C[C@H]1O (relative stereo) [Compound 252, 17-cyclohexyl-16,16-dimethyl-2,5,6,7,18,19,20-heptanor-4-oxa-4,8-inter-m-phenylene PGI2] | – | – | 5.6 | – | 13 | 6.5
17 | CC(C)(Oc1ccccc1)[C@H](O)/C=C/[C@@H]1[C@H]2c3cccc(OCC(=O)O)c3O[C@H]2C[C@H]1O (relative stereo) [Compound 317, 16-Methyl-16-phenoxy-2,5,6,7,18,19,20-heptanor-4-oxa-4,8-inter-m-phenylene PGI2] | – | – | 1.3 | – | 62 | 0.49
18 | CC(C)(Oc1ccccc1)[C@H](O)/C=C/[C@@H]1[C@H]2c3cccc(C#CC(=O)O)c3O[C@H]2C[C@H]1O (relative stereo) [Compound 371, 16-Methyl-16-phenoxy-2,5,6,7,18,19,20-heptanor-3,3,4,4-tetradehydro-4,8-inter-m-phenylene PGI2] | 4600 | > 10000 | 2.4 | – | 8 | 27.9
19 | CC(C)(C1CCCCC1)[C@H](O)/C=C/[C@@H]1[C@H]2c3cccc(OCC(=O)O)c3O[C@H]2C[C@H]1O (relative stereo) [Compound 248, 16-cyclohexyl-16-methyl-2,5,6,7,18,19,20-heptanor-4-oxa-4,8-inter-m-phenylene PGI2] | – | – | 11 | – | 13 | 31.1
